Patent publication US20230340020A1, “PEPTIDE LIGANDS FOR BINDING TO MT1-MMP” (priority 2016, published 2023)
Starred links: 1 amine or outer side, 2 acyl side, 3 side chain; linkers in the order of their positions; H or OH if unused. Positions of bridges follow the written chain, without caps; N, C: chain ends. Non-standard residues stand in square brackets, D forms with d. Residues, ends and D or L forms follow the SMILES beside them. 1Nal = N[C@@H](Cc1cccc2ccccc12)C(=O)O; TBMB = c1c(C[*:1])cc(C[*:3])cc1C[*:2]; Tle = CC(C)(C)[C@H](N)C(=O)O; βAla = NCCC(=O)O; Sar = CNCC(=O)O

What was measured:
MT1-MMP = experiment: Species cross-reactivity with MT1-MMP; format: binding; details: murine, dog, cynomolgus and human MT1-MMP
MT1-MMP hemopexin domain = biological target: T1, MT1-MMP hemopexin domain (Homo sapiens, UniProt P50281); experiment: Fluorescence polarisation competition binding to MT1-MMP hemopexin domain; details: read-out: Binding Affinity Ki(h)
T1 construct: residues Cys319-Gly511 from the human gene; His6 (N); made in house; host or cells: HEK293 (transient, pEXPR-IBA42 vector)
Description: The MT1-MMP hemopexin-like repeats (also known as the MT1-MMP hemopexin domain), residues Cys319-Gly511 from the human gene, were transiently expressed in HEK293 cells as secreted N-terminally His6-tagged soluble protein, using the pEXPR-IBA42 (IBA) expression vector. Following expression, the protein was purified by Nickel-NTA affinity chromatography followed by gel filtration, and purity was checked by SDS-PAGE. Batch to batch variability was also monitored by fluorescence thermal shift experiments in the presence/absence of a hemopexin domain binding bicycle.
Binding affinity was measured using competition assays using Fluorescence Polarisation (anisotropy). […]
Here, a pre-formed complex of PEX with the fluorescent PEX-binding tracer is titrated with free, non-fluoresceinated bicyclic peptide. […] Dissociation of the complex can be measured quantitatively, and the Kd of the competitor (titrant) to the target protein determined. The advantage of the competition method is that the affinities of non-fluoresceinated bicyclic peptides can be determined accurately and rapidly.
Subsequently, the non-fluorescent competitor bicyclic peptide (usually just the bicycle core sequence) is titrated, such that it displaces the fluorescent tracer from the target protein. The displacement of the tracer is measured and associated with a drop in fluorescence polarisation. […]

[1] = Plasma stability in mouse serum; format: in vitro ADME; details: 4 μM concentration
Description: (§1) The stability appears to be slightly greater than that of the corresponding conjugates in which the peptide is linked to the scaffold by three thioether linkages.

[2] = Plasma stability in human serum; format: in vitro ADME; details: 4 μm concentration
Description: as §1

[3] = Tolerability in HT1080 tumor-bearing mice; details: mouse, in vivo; biw dosing, up to 14 days, BALB/c nude mice; read-out: tolerated dose
Protocol: BALB/c nude mice were inoculated subcutaneously at the right flank with HT1080 tumor cells […] in 0.2 ml of PBS for tumor development. 39 animals were randomized when the average tumor volume reached […].
The BDC compounds were formulated at 0.03 mg/ml in a vehicle buffer containing 25 mM histidine and 10% Sucrose. The formulations were administered twice weekly (biw) at 0.3, 1, 3 and 10 mg/kg. Tumor volume and body weight were measured up to 14 days from the first dosing.

C[C@H](NC(=O)CN(C)C(=O)CN(C)C(=O)CN(C)C(=O)CN(C)C(=O)CN(C)C(=O)CN(C)C(=O)CN(C)C(=O)CN(C)C(=O)CN(C)C(=O)CN(C)C(=O)CCN)C(=O)N[C@H]1CSCc2cc3cc(c2)CSC[C@H](NC(=O)[C@@H](C)NC(=O)[C@H](Cc2cccc4ccccc24)NC(=O)[C@H](CCC(=O)O)NC(=O)[C@H](CC(N)=O)NC(=O)[C@@H](C)NC1=O)C(=O)N[C@@H](CCC(=O)O)C(=O)N[C@@H](CC(=O)O)C(=O)N[C@@H](Cc1ccccc1)C(=O)N[C@@H](Cc1ccc(O)cc1)C(=O)N[C@@H](CC(=O)O)C(=O)N[C@@H](C(C)(C)C)C(=O)N[C@H](C(N)=O)CSC3 [17-69-07-N241, H-(β-Ala)-Sar10-Ala-Cys-(D-Ala)-Asn-Glu-(1Nal)-(D-Ala)-Cys-Glu-Asp-Phe-Tyr-Asp-(tBuGly)-Cys-NH2] (H-[βAla][Sar][Sar][Sar][Sar][Sar][Sar][Sar][Sar][Sar][Sar]AC[dA]NE[1Nal][dA]CEDFYD[Tle]C-NH2; linker 13-19-26 via TBMB)
cross-reactivity with MT1-MMP of other species (MT1-MMP): fully cross reactive

CC(=O)N[C@@H](C)C(=O)N[C@H]1CN(C)Cc2cc3cc(c2)CN(C)C[C@@H](C(N)=O)NC(=O)[C@H](C(C)(C)C)NC(=O)[C@H](CC(=O)O)NC(=O)[C@H](Cc2ccc(O)cc2)NC(=O)[C@H](Cc2ccccc2)NC(=O)[C@H](CC(=O)O)NC(=O)[C@H](CCC(=O)O)NC(=O)[C@H](CSC3)NC(=O)[C@@H](C)NC(=O)[C@H](Cc2cccc3ccccc23)NC(=O)[C@H](CCC(=O)O)NC(=O)[C@H](CC(N)=O)NC(=O)[C@@H](C)NC1=O [17-69-07-N479, Ac-A(Dap(Me))(D-Ala)NE(1Nal)(D-Ala)CEDFYD(tBuGly)(Dap(Me))]
Ki (MT1-MMP hemopexin domain): 15.6 nM

CC[C@H](C)[C@@H]([C@@H](CC(=O)N1CCC[C@H]1[C@H](OC)[C@@H](C)C(=O)N[C@H](C)[C@@H](O)c1ccccc1)OC)N(C)C(=O)[C@@H](NC(=O)[C@H](C(C)C)N(C)C(=O)OCc1ccc(NC(=O)[C@H](CCCNC(N)=O)NC(=O)[C@@H](NC(=O)Cn2cc(CCC(=O)NCCC(=O)N(C)CC(=O)N(C)CC(=O)N(C)CC(=O)N(C)CC(=O)N(C)CC(=O)N(C)CC(=O)N(C)CC(=O)N(C)CC(=O)N(C)CC(=O)N(C)CC(=O)N[C@@H](C)C(=O)N[C@H]3CNCc4cc5cc(c4)CSC[C@H](NC(=O)[C@@H](C)NC(=O)[C@H](Cc4cccc6ccccc46)NC(=O)[C@H](CCC(=O)O)NC(=O)[C@H](CC(N)=O)NC(=O)[C@@H](C)NC3=O)C(=O)N[C@@H](CCC(=O)O)C(=O)N[C@@H](CC(=O)O)C(=O)N[C@@H](Cc3ccccc3)C(=O)N[C@@H](Cc3ccc(O)cc3)C(=O)N[C@@H](CC(=O)O)C(=O)N[C@@H](C(C)(C)C)C(=O)N[C@H](C(N)=O)CNC5)nn2)C(C)C)cc1)C(C)C [BT17BDC-53]
T1/2 in mouse serum [1]: greater than 50 hours | T1/2 in human serum [2]: greater than 50 hours

CC[C@H](C)[C@@H]([C@@H](CC(=O)N1CCC[C@H]1[C@H](OC)[C@@H](C)C(=O)N[C@H](C)[C@@H](O)c1ccccc1)OC)N(C)C(=O)[C@@H](NC(=O)[C@H](C(C)C)N(C)C(=O)OCc1ccc(NC(=O)[C@H](CCCNC(N)=O)NC(=O)[C@@H](NC(=O)Cn2cc(CCC(=O)N[C@@H](C)C(=O)N[C@H]3CN(C)Cc4cc5cc(c4)CN(C)C[C@@H](C(N)=O)NC(=O)[C@H](C(C)(C)C)NC(=O)[C@H](CC(=O)O)NC(=O)[C@H](Cc4ccc(O)cc4)NC(=O)[C@H](Cc4ccccc4)NC(=O)[C@H](CC(=O)O)NC(=O)[C@H](CCC(=O)O)NC(=O)[C@H](CSC5)NC(=O)[C@@H](C)NC(=O)[C@H](Cc4cccc5ccccc45)NC(=O)[C@H](CCC(=O)O)NC(=O)[C@H](CC(N)=O)NC(=O)[C@@H](C)NC3=O)nn2)C(C)C)cc1)C(C)C [BT17BDC-62]
MTD [3]: ~5 mg/kg

17-69-07-N268: stabilised derivative of 17-69-07; Dap homologues have SEQ ID 17 (ACANEAACEDFYDGC; non-natural residues D-Ala, 1Nal, tBuGly, Dap; bicycle; VARIANT 2 /replace="Dap" or "N-AlkDap" or "N-HAlkDap"; MOD_RES 3 D-amino acid; MOD_RES 6 Fmoc-L-1-Naphthylalanine; MOD_RES 7 D-amino acid; VARIANT 8 /replace="Dap" or "N-AlkDap" or "N-HAlkDap"; MOD_RES 14 Fmoc-alpha-tert-butylglycine; VARIANT 15 /replace="Dap" or "N-AlkDap" or "N-HAlkDap"; MISC_FEATURE - /note="Variant residues given in the sequence have nopreference with respect to those in the a)
cross-reactivity with MT1-MMP of other species (MT1-MMP): fully cross reactive
